Broadly, the IC50 is the midpoint of a concentration-inhibition curve. Low readings indicate greater potency in that assay, high ones weaker potency in that assay.

The test system of experiment [1] is PRC2-mediated histone H3 methylation. In words: Tri-Methyl Histone H3 (Lys 27) Sandwich ELISA in Pfeiffer cells: inhibition of PRC2-mediated histone H3 methylation. The experiment is classed as cell-based, human. The settings on record: Homo sapiens; Inhibition of EZH2-mediated histone H3 trimethylation; Pfeiffer cells (EZH2 A677G), 96 hours incubation. The source says: The Pfeiffer cell line was established from a […] from a patient having metastatic diffuse large B-cell lymphoma (DLBCL). This cell line expresses a mutant form of the EZH2 enzyme (A677G) that results in enhanced EZH2 activity leading to increased methylation of histone H3 Lys27. Increased trimethylation of histone H3 Lys27 is believed to be implicated in tumorgenesis and poor clinical prognosis in lymphomas (McCabe et al., (2012) Nature 492:108-112).
Inhibition of PRC2-mediated histone H3 methylation by compounds of Formula (I) was measured by ELISA using a Tri-Methyl Histone H3 (Lys 27) Sandwich ELISA Kit (Cell Signaling Tech #7866C) in accordance with the manufacturer's instructions. Briefly, Pfeiffer cells were cultured in RPMI medium supplemented with 10% fetal bovine serum and 1% penicillin and 1% streptomycin in 96 well culture plates at 37°C to a density of 8000 cells/90µl/well and the cells were harvested. A series of 3-fold serial dilutions of each test compound of Formula (I) were prepared in RPMI medium and added to the cells at final concentrations ranging from 1µM to 0.15 nM. The plates were incubated at 37°C for 96 hours.
After incubation, the cells were pelleted by centrifugation in a pre-cooled 4°C rotor at 1, 100 rpm for 10 min and the supernatant was removed by aspiration. The cell pellet was resuspended in 55µl of Lysis Buffer (0.4M HCl) and incubated on ice with periodic shaking for 30 minutes. The lysed cells were subjected to centrifugation at 4, 200 rpm for 10 min at 4°C and the supernatant containing acid-soluble proteins was collected and the remainder discarded. The acid-soluble proteins were brought to a neutral pH by the addition of 20 µl of Neutralization Buffer (1 M Sodium phosphate, dibasic (pH 12.5), 2.5 mM DTT and 1 mM PMSF) and the neutralized lysates were analyzed by ELISA.
A 65 µl aliquot of each cell lysate was added to a well of a microwell strip, the microwells were sealed using tape and incubated either at 37°C for two hours or at 4°C overnight. After incubation, the tape was removed at the microwells were washed four times using 200 µl of 1X Wash Buffer. To each washed microwell, a 100 µl aliquot of an antitrimethyl histone H3 Lys27 Detection Antibody solution was added and the microwells were incubated at 37°C for one hour. The Detection Antibody solution was removed by aspiration and the wells were washed four times each using 200 µl of 1X Wash Buffer.
A 100 µl aliquot of an HRP-linked secondary antibody was added to each well, the wells were sealed with tape and incubated at 37°C for 30 min. The HRP-linked secondary antibody solution was removed by aspiration and the wells were washed four times using 200 µl of 1X Wash Buffer. A 100 µl aliquot of a TMB substrate was added to each well, the wells were sealed with tape and incubated at 37°C for 10 min or 25°C for 30 min. The reaction was stopped by the addition of 100 µl aliquot of a STOP solution and the plate was shaken briefly. The degree of histone H3 trimethylation was determined using a spectrophotometric readout by measuring the absorbance at 450 nm and then calculating the amount of trimethylated histone H3. A = ≤100 nM; B = >100 nM - ≤500 nM; C = >500 nM and N.D. = not determined.
In general terms: ELISA stands for enzyme-linked immunosorbent assay.

For experiment [2], the target named is purified human, His-tagged PRC2 complex (Homo sapiens, UniProt O75530+Q15910). In words: Hot Spot HMT assay: inhibition of PRC2 enzymatic activity (transfer of tritiated methyl from SAM to core histone, filter binding). The settings on record: Inhibition of PRC2-mediated enzymatic activity; 10 nM PRC2 complex, 0.05 mg/ml core histone H3, 1 uM 3H-SAM, 1 hr at 30°C. The experiment is classed as biochemical. The method in brief: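 Five-subunit complex (His-EZH2, Flag-EED, His-SUZ12, His-AEBP2, His-RbAp48) at 10 nM with 0.05 mg/ml core histone H3, pH 8 Tris buffer, 1% DMSO; 20 min compound pre-incubation at 30°C. Started with 1 uM [3H]-SAM, 1 hr at 30°C; tritiated H3 counted by scintillation. Compounds diluted from 1.0 µM top concentration.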
Chain of purified human, His-tagged PRC2 complex (Q15910 whole entry): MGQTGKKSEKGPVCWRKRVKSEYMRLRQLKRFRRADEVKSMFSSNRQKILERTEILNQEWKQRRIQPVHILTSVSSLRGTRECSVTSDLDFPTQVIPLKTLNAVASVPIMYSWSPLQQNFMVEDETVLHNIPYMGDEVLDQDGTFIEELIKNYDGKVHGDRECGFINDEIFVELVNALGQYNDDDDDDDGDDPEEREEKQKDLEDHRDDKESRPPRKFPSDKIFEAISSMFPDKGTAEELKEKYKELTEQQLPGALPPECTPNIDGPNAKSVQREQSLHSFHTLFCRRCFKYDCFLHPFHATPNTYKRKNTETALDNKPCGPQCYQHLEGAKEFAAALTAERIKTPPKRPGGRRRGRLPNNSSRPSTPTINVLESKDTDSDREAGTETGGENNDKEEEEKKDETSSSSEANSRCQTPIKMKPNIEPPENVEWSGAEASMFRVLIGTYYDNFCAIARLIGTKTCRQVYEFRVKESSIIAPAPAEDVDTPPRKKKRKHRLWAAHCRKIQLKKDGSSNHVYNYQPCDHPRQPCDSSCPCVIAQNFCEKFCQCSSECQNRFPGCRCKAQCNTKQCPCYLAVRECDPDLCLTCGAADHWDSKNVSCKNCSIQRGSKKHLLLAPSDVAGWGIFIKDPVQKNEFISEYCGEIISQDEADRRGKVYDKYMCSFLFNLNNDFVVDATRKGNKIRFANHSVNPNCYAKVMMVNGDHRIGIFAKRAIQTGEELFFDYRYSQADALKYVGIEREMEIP
Chain of purified human, His-tagged PRC2 complex (O75530 whole entry): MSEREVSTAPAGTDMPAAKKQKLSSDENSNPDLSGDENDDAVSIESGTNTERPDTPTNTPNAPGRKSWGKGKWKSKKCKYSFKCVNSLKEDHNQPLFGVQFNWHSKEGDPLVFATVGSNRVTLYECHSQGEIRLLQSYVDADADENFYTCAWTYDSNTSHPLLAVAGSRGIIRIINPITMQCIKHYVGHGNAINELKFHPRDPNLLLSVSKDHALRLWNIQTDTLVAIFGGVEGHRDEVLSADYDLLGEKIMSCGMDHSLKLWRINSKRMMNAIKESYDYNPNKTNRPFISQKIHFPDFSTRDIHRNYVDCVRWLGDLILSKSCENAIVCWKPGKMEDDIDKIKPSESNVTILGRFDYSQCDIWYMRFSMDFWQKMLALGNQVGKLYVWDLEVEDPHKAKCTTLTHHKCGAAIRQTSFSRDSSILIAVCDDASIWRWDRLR
Chain of purified human, His-tagged PRC2 complex (Q15022 whole entry partner): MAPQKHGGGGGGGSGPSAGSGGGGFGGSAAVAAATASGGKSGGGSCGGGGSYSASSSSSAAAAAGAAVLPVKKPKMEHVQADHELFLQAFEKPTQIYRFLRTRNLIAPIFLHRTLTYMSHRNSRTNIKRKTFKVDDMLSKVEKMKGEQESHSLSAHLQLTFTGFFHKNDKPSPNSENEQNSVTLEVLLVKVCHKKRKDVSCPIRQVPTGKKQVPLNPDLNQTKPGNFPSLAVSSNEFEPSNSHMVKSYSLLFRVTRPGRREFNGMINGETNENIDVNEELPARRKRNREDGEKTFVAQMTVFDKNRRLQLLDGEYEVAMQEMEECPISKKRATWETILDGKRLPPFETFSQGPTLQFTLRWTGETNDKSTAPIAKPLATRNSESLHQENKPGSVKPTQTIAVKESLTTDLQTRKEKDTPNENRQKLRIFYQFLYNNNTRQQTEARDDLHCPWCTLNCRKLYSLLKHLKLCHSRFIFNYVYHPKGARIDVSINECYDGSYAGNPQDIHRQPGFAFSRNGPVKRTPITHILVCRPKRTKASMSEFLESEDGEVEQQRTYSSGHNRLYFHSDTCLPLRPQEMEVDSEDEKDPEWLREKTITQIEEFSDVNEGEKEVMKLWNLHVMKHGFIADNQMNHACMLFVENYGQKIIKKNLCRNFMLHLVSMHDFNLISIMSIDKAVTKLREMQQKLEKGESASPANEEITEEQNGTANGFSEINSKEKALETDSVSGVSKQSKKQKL
Chain of purified human, His-tagged PRC2 complex (Q6ZN18 whole entry partner): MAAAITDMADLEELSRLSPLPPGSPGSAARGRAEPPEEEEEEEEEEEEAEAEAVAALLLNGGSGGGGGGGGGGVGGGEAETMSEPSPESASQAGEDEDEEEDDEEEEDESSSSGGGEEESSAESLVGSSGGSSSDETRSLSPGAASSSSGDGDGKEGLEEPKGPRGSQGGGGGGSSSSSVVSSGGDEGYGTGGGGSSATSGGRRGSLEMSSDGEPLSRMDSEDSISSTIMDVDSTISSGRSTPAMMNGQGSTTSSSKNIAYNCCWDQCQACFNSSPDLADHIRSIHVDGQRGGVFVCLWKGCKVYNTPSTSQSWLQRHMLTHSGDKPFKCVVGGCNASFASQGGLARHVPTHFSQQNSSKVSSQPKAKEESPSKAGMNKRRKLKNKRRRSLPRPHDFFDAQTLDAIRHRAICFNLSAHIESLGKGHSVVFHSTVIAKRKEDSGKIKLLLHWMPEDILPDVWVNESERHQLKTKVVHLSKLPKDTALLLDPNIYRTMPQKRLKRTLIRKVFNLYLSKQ
Chain of purified human, His-tagged PRC2 complex (Q09028 whole entry partner): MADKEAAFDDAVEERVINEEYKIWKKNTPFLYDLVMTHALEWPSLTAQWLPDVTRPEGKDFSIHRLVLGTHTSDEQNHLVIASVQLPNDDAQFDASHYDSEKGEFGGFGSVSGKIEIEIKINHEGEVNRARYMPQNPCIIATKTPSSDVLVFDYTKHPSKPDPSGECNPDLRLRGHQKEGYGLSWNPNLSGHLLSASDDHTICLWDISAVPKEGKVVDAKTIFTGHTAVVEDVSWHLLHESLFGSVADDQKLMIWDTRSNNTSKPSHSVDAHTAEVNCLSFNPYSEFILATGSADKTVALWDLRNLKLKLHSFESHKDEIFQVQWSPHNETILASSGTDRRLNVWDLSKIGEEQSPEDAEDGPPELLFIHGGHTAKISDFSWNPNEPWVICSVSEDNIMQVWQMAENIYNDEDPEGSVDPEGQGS

The subject of another experiment is Karpas 422 cells. Put plainly: Karpas 422 cell viability, CTG (Cell Titre Glo) assay. The experiment is classed as cell-based, human. The settings on record: Homo sapiens; Inhibition of proliferation of Karpas 422 cells (EZH2 Y641N); viability measured Day 4, Day 7 or Day 11, time point of the tabulated values not stated. The procedure, abridged: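 Karpas 422 cells (EZH2 Y641N, DLBCL) plated at 1000 cells/well in RPMI with 20% FBS, exposed to compound 10µM down to 1.5nM in 3-fold steps at 37 °C. Viability by CellTiter-Glo on Days 4, 7 and 11; Day 11 plates re-fed with fresh medium and compound on Day 7. IC50 per time point.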

`N#Cc1cn2c(NCc3c(F)ccc4c3CCO4)ncc(-c3ccc(CN4CC(O)C4)cc3)c2n1` [Example 150, 5-(((5-fluoro-2,3-dihydrobenzofuran-4-yl)methyl)amino)-8-(4-((3-hydroxyazetidin-1-yl)methyl)phenyl)imidazo[1,2-c]pyrimidine-2-carbonitrile]: the IC50 in experiment [1] was at most 100 nM; in experiment [2], under 100 nM.
Consider `N#Cc1cn2c(NCc3c(F)ccc4c3CCO4)ncc(-c3ccccc3)c2n1` [Example 46, 5-(((5-fluoro-2,3-dihydrobenzofuran-4-yl)methyl)amino)-8-phenylimidazo[1,2-c]pyrimidine-2-carbonitrile], for which the IC50 in experiment [1] is 100 to 500 nM; in experiment [2], under 100 nM.
The like results for `Cn1nc(C(F)(F)F)cc1-c1cnc(NCc2c(F)ccc3c2CCO3)n2cc(C#N)nc12` [Example 111, 5-(((5-fluoro-2,3-dihydrobenzofuran-4-yl)methyl)amino)-8-(1-methyl-3-(trifluoromethyl)-1H-pyrazol-5-yl)imidazo[1,2-c]pyrimidine-2-carbonitrile] were, in that order, at most 100 nM and under 100 nM.
`Cc1ncccc1-c1cnc(NCc2c(F)ccc3occc23)n2cc(C(N)=O)nc12` [Example 12, 5-(((5-fluorobenzofuran-4-yl)methyl)amino)-8-(2-methylpyridin-3-yl)imidazo[1,2-c]pyrimidine-2-carboxamide]: the values for the 50% inhibitory concentration (IC50) (in experiment [2]; in the experiment on Karpas 422 cells) were under 100 nM and over 500 nM, respectively.
With `Cc1cc(-c2cnc(NCc3c(F)ccc4occc34)n3cc(C(=O)O)nc23)n(C)n1` [Example 9, 8-(1,3-dimethyl-1H-pyrazol-5-yl)-5-(((5-fluorobenzofuran-4-yl)methyl)amino)imidazo[1,2-c]pyrimidine-2-carboxylic acid], the IC50 in experiment [2] was under 100 nM; in the experiment on Karpas 422 cells it was over 500 nM.
Regarding `N#Cc1cn2c(NCc3c(F)ccc4c3CCO4)ncc(-c3ccc(N)nc3)c2n1` [Example 127, 8-(6-aminopyridin-3-yl)-5-(((5-fluoro-2,3-dihydrobenzofuran-4-yl)methyl)amino)imidazo[1,2-c]pyrimidine-2-carbonitrile], the IC50 in experiment [2] was under 100 nM; in the experiment on Karpas 422 cells, 250 to 500 nM.
`CCOc1ncccc1-c1cnc(NCc2c(F)ccc3c2CCO3)n2cc(C#N)nc12` [Example 124, 8-(2-ethoxypyridin-3-yl)-5-(((5-fluoro-2,3-dihydrobenzofuran-4-yl)methyl)amino)imidazo[1,2-c]pyrimidine-2-carbonitrile]: the concentration for half-maximal inhibition (IC50) in experiment [2] was under 100 nM; in the experiment with Karpas 422 cells it was over 500 nM.
Turning to `N#Cc1cn2c(NCc3c(F)ccc4c3CCO4)ncc(-c3ccc(C4CC4)nc3)c2n1` [Example 116, 8-(6-cyclopropylpyridin-3-yl)-5-(((5-fluoro-2,3-dihydrobenzofuran-4-yl)methyl)amino)imidazo[1,2-c]pyrimidine-2-carbonitrile], the half-inhibitory concentration (IC50) in experiment [2] is under 100 nM; in the experiment with Karpas 422 cells, at most 250 nM.
Regarding `N#Cc1cn2c(NCc3c(F)ccc4c3CCO4)ncc(-c3cccnc3C(F)F)c2n1` [Example 64, 8-(2-(difluoromethyl)pyridin-3-yl)-5-(((5-fluoro-2,3-dihydrobenzofuran-4-yl)methyl)amino)imidazo[1,2-c]pyrimidine-2-carbonitrile], the IC50 is under 100 nM in experiment [2] and 250 to 500 nM in the experiment with Karpas 422 cells.
On to `Cc1nc(OC(C)C)ncc1-c1cnc(NCc2c(F)ccc3c2CCO3)n2cc(C#N)nc12` [Example 89, 5-(((5-fluoro-2,3-dihydrobenzofuran-4-yl)methyl)amino)-8-(2-isopropoxy-4-methylpyrimidin-5-yl)imidazo[1,2-c]pyrimidine-2-carbonitrile], for which the IC50 in experiment [2] was under 100 nM; in the experiment with Karpas 422 cells, at most 250 nM.
Turning to `CN(C)C(=O)c1ccc(-c2cnc(NCc3c(F)ccc4c3CCO4)n3cc(C#N)nc23)c(F)c1F` [Example 42, 4-(2-cyano-5-(((5-fluoro-2,3-dihydrobenzofuran-4-yl)methyl)amino)imidazo[1,2-c]pyrimidin-8-yl)-2,3-difluoro-N,N-dimethylbenzamide], the figures for the 50% inhibitory concentration (IC50) (in experiment [2]; with Karpas 422 cells) were under 100 nM and at most 250 nM, respectively.
For the compound `Cc1cncc(-c2cnc(NCc3c(F)ccc4c3CCO4)n3cc(C#N)nc23)c1` [Example 96, 5-(((5-fluoro-2,3-dihydrobenzofuran-4-yl)methyl)amino)-8-(5-methylpyridin-3-yl)imidazo[1,2-c]pyrimidine-2-carbonitrile], the IC50 in experiment [2] is under 100 nM; in the experiment on Karpas 422 cells, 250 to 500 nM.
Turning to `Cc1cc(-c2cnc(NCc3c(F)ccc4c3CCO4)n3cc(C(=O)N(C)C)nc23)n(C)n1` [Example 21, 8-(1,3-dimethyl-1H-pyrazol-5-yl)-5-(((5-fluoro-2,3-dihydrobenzofuran-4-yl)methyl)amino)-N,N-dimethylimidazo[1,2-c]pyrimidine-2-carboxamide], the IC50 in experiment [2] was over 500 nM; with Karpas 422 cells, at most 250 nM.
The like results for `Cc1ncc(-c2cnc(NCc3c(F)ccc4c3CCO4)n3cc(C#N)nc23)cc1N` [Example 129, 8-(5-amino-6-methylpyridin-3-yl)-5-(((5-fluoro-2,3-dihydrobenzofuran-4-yl)methyl)amino)imidazo[1,2-c]pyrimidine-2-carbonitrile] were, in that order, under 100 nM and at most 250 nM.
For the compound `N#Cc1cn2c(NCc3c(F)ccc4c3CCO4)ncc(-c3ccc(CN4CCC(F)C4)cc3)c2n1` (centres unmarked) [Example 54, 5-(((5-fluoro-2,3-dihydrobenzofuran-4-yl)methyl)amino)-8-(4-((3-fluoropyrrolidin-1-yl)methyl)phenyl)imidazo[1,2-c]pyrimidine-2-carbonitrile], the 50% inhibitory concentration (IC50) in experiment [2] was under 100 nM; in the experiment with Karpas 422 cells, at most 250 nM.
For `CS(=O)(=O)c1ccc(-c2cnc(NCc3c(F)ccc4c3CCO4)n3cc(C#N)nc23)cc1` [Example 73, 5-(((5-fluoro-2,3-dihydrobenzofuran-4-yl)methyl)amino)-8-(4-(methylsulfonyl)phenyl)imidazo[1,2-c]pyrimidine-2-carbonitrile], the figures for the half-inhibitory concentration (IC50) (in experiment [2]; with Karpas 422 cells) were under 100 nM and at most 250 nM, respectively.
The like results for `N#Cc1cn2c(NCc3c(F)ccc4c3CCO4)ncc(-c3cncc(C(F)(F)F)c3)c2n1` [Example 132, 5-(((5-fluoro-2,3-dihydrobenzofuran-4-yl)methyl)amino)-8-(5-(trifluoromethyl)pyridin-3-yl)imidazo[1,2-c]pyrimidine-2-carbonitrile] were, in that order, over 500 nM and 250 to 500 nM.
As to `CN(C)C(=O)c1c(F)cc(-c2cnc(NCc3c(F)ccc4c3CCO4)n3cc(C#N)nc23)cc1F` [Example 45, 4-(2-cyano-5-(((5-fluoro-2,3-dihydrobenzofuran-4-yl)methyl)amino)imidazo[1,2-c]pyrimidin-8-yl)-2,6-difluoro-N,N-dimethylbenzamide], the IC50 in experiment [2] was under 100 nM; in the experiment with Karpas 422 cells, at most 250 nM.
The like results for `CNC(=O)c1cn2c(NCc3c(F)ccc4c3CCO4)ncc(-c3cc(C)nn3C)c2n1` [Example 20, 8-(1,3-dimethyl-1H-pyrazol-5-yl)-5-(((5-fluoro-2,3-dihydrobenzofuran-4-yl)methyl)amino)-N-methylimidazo[1,2-c]pyrimidine-2-carboxamide] were, in that order, under 100 nM and at most 250 nM.

The record behind these values is patent publication EP4043466B1, “PRC2 INHIBITORS” (Mirati Therapeutics, Inc., priority 2018, dated 2019).
